This is an account of results in patent publication US7592360B2, “3-fluoro-piperidines as NMDA/NR2B antagonists” (Merck & Co., Inc., priority 2003, dated 2009).

Counter-ions that a name gives are not always drawn.

As usually defined, the melting point is the temperature of the solid-liquid transition. In turn, `O=C([C@@H]1C[C@H]1c1ccccc1)N1CC[C@H](CNc2ncccn2)[C@H](F)C1` (as salt: hydrochloride) [Example 5, (3S,4R)-N-[(3-cis-fluoro-1-{[(1R,2R)-2-phenylcyclopropyl]carbonyl}piperidin-4-yl)methyl]pyrimidin-2-amine] returned a melting point of 127 to 128 °C.

As for `Cc1ccc(COC(=O)N2CC[C@@H](CNc3nncs3)[C@@H](F)C2)cc1` (stereo in doubt) (as salt: hydrochloride) [Example 6, (−)-cis-4-methylbenzyl 3-fluoro-4-[(1,3,4-thiadiazol-2-ylamino)methyl]piperidine-1-carboxylate], the melting point lay within 115 to 117 °C.

Take `Cc1ccc(COC(=O)N2CC[C@@H](CNc3nncs3)[C@H](F)C2)cc1` [Example 7, (+)-trans-4-methylbenzyl 3-fluoro-4-[(1,3,4-thiadiazol-2-ylamino)methyl]piperidine-1-carboxylate]: the melting point is 93 to 95 °C.
